Source: ChEMBL document CHEMBL4507297, “Data for DCP probe PF-04457845” (2021)
Activity calls are given as the source filed them.

Experiments:
[1] = biological target: 5-hydroxytryptamine receptor 2A (Homo sapiens, UniProt P28223); test: GPCRScan assay: inhibition of 5-HT2A; set-up: radioligand conc. used [nm] 1.2 – 2.4, parental cells HEKT
[2] = biological target: T1, 5-hydroxytryptamine receptor 2B (Homo sapiens, UniProt P41595); test: GPCRScan assay: inhibition of 5-HT2B; set-up: radioligand conc. used [nm] 1.0 – 2.0, parental cells stable HEK
[3] = biological target: Sigma non-opioid intracellular receptor 1 (Homo sapiens, UniProt Q99720); test: GPCRScan assay: inhibition of Sigma 1; set-up: radioligand conc. used [nm] 4.0 – 5.0, parental cells HEKT
[4] = biological target: T2, Fatty-acid amide hydrolase 1 (Homo sapiens, UniProt O00519); test: Glutamate dehydrogenase-coupled FAAH assay (preincubation time 60 min)
[5] = biological target: Adenosine receptor A1 (Homo sapiens) (UniProt P30542); test: A1 (h) CEREP ligand profiling; details: Compound concentration 10.0 uM
[6] = biological target: Adrenergic receptor alpha-1 (Homo sapiens) (UniProt P35348+P25100+P35368); test: alpha1 (non-selective) CEREP ligand profiling; assay type: protein assay; details: Compound concentration 10.0 uM
[7] = biological target: Alpha-2B adrenergic receptor (Homo sapiens) (UniProt P18089); test: alpha2B (h) CEREP ligand profiling; details: Compound concentration 10.0 uM
[8] = biological target: Beta-1 adrenergic receptor (Homo sapiens) (UniProt P08588); test: beta1 (h) CEREP ligand profiling; details: Compound concentration 10.0 uM
[9] = biological target: Type-1 angiotensin II receptor (Homo sapiens) (UniProt P30556); test: AT1 (h) CEREP ligand profiling; details: Compound concentration 10.0 uM
[10] = biological target: Gastrin/cholecystokinin type B receptor (Homo sapiens) (UniProt P32239); test: CCKB (h) (CCK2) CEREP ligand profiling; details: Compound concentration 10.0 uM
[11] = biological target: D(1A) dopamine receptor (Homo sapiens) (UniProt P21728); test: D1 (h) CEREP ligand profiling; details: Compound concentration 10.0 uM
[12] = biological target: D(2) dopamine receptor (Homo sapiens) (UniProt P14416); test: D2S (h) CEREP ligand profiling; details: Compound concentration 10.0 uM
[13] = biological target: D(3) dopamine receptor (Homo sapiens) (UniProt P35462); test: D3 (h) CEREP ligand profiling; details: Compound concentration 10.0 uM
[14] = biological target: GABA-A receptor; anion channel (Homo sapiens) (UniProt P14867+P47870+P18507+P28472+P48169+Q99928+Q9UN88+P34903+O00591+O14764+Q8N1C3+P18505+P78334+P47869+P31644+Q16445); test: GABAA CEREP ligand profiling; assay type: protein-complex assay; details: Compound concentration 10.0 uM
[15] = biological target: Glutamate receptor ionotropic, kainate 2 (Homo sapiens) (UniProt Q13002); test: Kainate CEREP ligand profiling; details: Compound concentration 10.0 uM
[16] = biological target: Glutamate [NMDA] receptor (Homo sapiens) (UniProt Q05586+Q12879+Q13224+O15399+O60391+Q14957+Q8TCU5); test: NMDA CEREP ligand profiling; assay type: protein-complex assay; details: Compound concentration 10.0 uM
[17] = biological target: Histamine H2 receptor (Homo sapiens) (UniProt P25021); test: H2 (h) CEREP ligand profiling; details: Compound concentration 10.0 uM
[18] = biological target: Histamine H3 receptor (Homo sapiens) (UniProt Q9Y5N1); test: H3 (h) CEREP ligand profiling; details: Compound concentration 10.0 uM
[19] = biological target: MAO-A (Amine oxidase [flavin-containing] A) (Homo sapiens, UniProt P21397); test: MAO-A CEREP ligand profiling; details: compound concentration 10 uM
[20] = biological target: Muscarinic acetylcholine receptor M3 (Homo sapiens) (UniProt P20309); test: M3 (h) CEREP ligand profiling; details: Compound concentration 10.0 uM
[21] = biological target: T1, 5-hydroxytryptamine receptor 2B; test: 5-HT2B (h) (agonist site) CEREP ligand profiling; details: Compound concentration 10.0 uM
[22] = biological target: T3, 5-hydroxytryptamine receptor 2C (Homo sapiens) (UniProt P28335); test: 5-HT2C (h) (agonist site) CEREP ligand profiling; details: Compound concentration 10.0 uM
T3 sequence (whole entry): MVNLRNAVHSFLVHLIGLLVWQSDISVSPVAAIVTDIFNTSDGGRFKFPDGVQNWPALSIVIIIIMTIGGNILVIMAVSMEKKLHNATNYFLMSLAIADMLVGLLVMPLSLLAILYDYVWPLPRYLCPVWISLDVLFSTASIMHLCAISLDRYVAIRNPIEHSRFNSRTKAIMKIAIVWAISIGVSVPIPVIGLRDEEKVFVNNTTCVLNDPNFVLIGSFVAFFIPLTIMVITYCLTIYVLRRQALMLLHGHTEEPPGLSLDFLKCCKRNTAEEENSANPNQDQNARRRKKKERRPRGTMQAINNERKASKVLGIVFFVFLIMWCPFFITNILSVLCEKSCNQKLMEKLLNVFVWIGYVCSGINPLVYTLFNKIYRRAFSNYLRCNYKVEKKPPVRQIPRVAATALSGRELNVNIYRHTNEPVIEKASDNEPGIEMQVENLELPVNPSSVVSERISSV

[23] = biological target: 5-hydroxytryptamine receptor 4 (Homo sapiens) (UniProt Q13639); test: 5-HT4e (h) CEREP ligand profiling; details: Compound concentration 10.0 uM
[24] = biological target: 5-hydroxytryptamine receptor 7 (Homo sapiens) (UniProt P34969); test: 5-HT7 (h) CEREP ligand profiling; details: Compound concentration 10.0 uM
[25] = biological target: Vasopressin V1a receptor (Homo sapiens) (UniProt P37288); test: V1a (h) CEREP ligand profiling; details: Compound concentration 10.0 uM
[26] = biological target: Ca2+ channel (L, verapamil site) (phenylalkylamines); voltage-gated L-type calcium channel (Homo sapiens, UniProt O60840+Q01668+Q13698+Q13936); test: Ca2+ channel (L, verapamil site) (phenylalkylamines) CEREP ligand profiling; assay type: protein assay; details: compound concentration 10 uM
[27] = biological target: Voltage-dependent N-type calcium channel subunit alpha-1B (Homo sapiens) (UniProt Q00975); test: Ca2+ channel (N) CEREP ligand profiling; details: Compound concentration 10.0 uM
[28] = biological target: Sodium-dependent serotonin transporter (Homo sapiens) (UniProt P31645); test: 5-HT transporter (h) CEREP ligand profiling; details: Compound concentration 10.0 uM
[29] = biological target: High affinity choline transporter 1 (Homo sapiens) (UniProt Q9GZV3); test: Choline transporter (h) (CHT1) CEREP ligand profiling; details: Compound concentration 10.0 uM
[30] = biological target: Phosphodiesterase 4 (Homo sapiens) (UniProt P27815+Q08499+Q07343+Q08493); test: PDE 4 (h) CEREP ligand profiling; assay type: protein assay; details: Compound concentration 10.0 uM
[31] = biological target: Sodium/potassium-transporting ATPase (Homo sapiens) (UniProt P05023+P14415+P05026+P50993+P54709+P13637+Q13733+P54710); test: ATPase (Na+/K+) CEREP ligand profiling; assay type: protein-complex assay; details: Compound concentration 10.0 uM
[32] = biological target: 5-hydroxytryptamine receptor 1A (Homo sapiens) (UniProt P08908); details: Compound concentration 10.0 uM
[33] = biological target: Kappa-type opioid receptor (Homo sapiens) (UniProt P41145); details: Compound concentration 10.0 uM
[34] = biological target: T2, Fatty-acid amide hydrolase 1; test: Binding assay; set-up: compound concentration 10 uM

T1 sequence (P41595 whole entry): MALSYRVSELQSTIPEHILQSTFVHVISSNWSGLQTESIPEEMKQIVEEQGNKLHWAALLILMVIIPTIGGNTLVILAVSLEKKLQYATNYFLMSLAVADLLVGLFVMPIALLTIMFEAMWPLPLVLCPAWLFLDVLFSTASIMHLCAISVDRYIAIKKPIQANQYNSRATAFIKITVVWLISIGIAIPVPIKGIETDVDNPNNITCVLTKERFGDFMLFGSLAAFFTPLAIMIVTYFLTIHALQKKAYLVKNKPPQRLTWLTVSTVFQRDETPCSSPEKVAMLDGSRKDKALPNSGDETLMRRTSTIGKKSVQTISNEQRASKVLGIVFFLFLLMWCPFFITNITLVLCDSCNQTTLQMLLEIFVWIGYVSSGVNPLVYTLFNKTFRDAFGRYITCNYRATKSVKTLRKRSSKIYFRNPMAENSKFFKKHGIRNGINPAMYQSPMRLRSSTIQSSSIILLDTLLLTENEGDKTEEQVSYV
T2 sequence (O00519 whole entry): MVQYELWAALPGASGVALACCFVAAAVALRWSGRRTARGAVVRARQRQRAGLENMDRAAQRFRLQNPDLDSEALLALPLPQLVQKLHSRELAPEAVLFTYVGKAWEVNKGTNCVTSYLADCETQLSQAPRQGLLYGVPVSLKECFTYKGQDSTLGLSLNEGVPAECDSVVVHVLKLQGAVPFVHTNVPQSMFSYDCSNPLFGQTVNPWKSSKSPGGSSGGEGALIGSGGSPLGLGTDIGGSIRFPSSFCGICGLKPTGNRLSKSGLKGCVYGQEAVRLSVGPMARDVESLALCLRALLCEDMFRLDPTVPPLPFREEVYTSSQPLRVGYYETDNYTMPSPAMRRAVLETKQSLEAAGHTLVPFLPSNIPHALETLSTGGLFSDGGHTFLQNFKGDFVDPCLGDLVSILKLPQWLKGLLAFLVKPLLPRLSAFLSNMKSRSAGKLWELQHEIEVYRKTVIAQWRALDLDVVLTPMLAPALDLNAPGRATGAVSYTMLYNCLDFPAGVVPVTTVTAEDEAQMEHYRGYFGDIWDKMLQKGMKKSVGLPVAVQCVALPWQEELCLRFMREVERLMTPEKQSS
Sodium-dependent serotonin transporter (Homo sapiens), sequence (P31645 whole entry, looked up): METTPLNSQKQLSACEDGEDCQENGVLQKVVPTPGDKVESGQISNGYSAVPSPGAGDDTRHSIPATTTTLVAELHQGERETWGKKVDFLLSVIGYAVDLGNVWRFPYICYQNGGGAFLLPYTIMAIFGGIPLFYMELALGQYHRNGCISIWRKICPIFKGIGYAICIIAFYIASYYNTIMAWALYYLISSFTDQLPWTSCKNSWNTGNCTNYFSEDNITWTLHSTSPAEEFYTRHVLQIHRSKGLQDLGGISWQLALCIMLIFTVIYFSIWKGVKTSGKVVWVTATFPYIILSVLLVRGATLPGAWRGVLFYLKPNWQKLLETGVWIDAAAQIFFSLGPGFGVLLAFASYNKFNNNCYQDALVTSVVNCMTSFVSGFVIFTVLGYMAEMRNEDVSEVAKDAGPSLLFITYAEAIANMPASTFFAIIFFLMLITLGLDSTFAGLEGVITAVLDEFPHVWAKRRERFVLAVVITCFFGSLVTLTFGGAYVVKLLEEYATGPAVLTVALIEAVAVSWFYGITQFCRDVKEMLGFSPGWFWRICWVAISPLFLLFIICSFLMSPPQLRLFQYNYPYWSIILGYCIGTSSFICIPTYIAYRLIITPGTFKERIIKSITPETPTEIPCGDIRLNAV
5-hydroxytryptamine receptor 2A, sequence (P28223 whole entry): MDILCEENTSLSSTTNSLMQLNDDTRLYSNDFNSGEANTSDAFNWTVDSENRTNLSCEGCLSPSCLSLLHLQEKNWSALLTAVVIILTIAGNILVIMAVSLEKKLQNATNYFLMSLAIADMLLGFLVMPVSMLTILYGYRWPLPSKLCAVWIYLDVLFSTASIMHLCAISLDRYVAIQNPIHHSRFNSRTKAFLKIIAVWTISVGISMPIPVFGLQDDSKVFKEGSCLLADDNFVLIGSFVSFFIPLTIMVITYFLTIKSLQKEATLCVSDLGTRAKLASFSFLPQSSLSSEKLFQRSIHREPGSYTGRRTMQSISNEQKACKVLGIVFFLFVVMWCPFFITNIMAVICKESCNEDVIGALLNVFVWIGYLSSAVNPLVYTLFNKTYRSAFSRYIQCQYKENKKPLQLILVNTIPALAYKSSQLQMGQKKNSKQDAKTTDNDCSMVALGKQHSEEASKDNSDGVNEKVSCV
Adenosine receptor A1 (Homo sapiens), sequence (P30542 whole entry): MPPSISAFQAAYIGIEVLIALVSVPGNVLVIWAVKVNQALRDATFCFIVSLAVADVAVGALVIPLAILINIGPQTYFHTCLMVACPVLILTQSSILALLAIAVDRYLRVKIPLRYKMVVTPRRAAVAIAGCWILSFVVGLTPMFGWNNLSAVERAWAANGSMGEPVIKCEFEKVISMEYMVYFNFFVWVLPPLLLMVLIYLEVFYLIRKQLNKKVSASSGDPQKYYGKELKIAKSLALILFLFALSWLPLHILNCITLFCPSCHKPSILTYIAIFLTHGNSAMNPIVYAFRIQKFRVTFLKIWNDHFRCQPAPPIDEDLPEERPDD
Vasopressin V1a receptor (Homo sapiens), sequence (P37288 whole entry, looked up): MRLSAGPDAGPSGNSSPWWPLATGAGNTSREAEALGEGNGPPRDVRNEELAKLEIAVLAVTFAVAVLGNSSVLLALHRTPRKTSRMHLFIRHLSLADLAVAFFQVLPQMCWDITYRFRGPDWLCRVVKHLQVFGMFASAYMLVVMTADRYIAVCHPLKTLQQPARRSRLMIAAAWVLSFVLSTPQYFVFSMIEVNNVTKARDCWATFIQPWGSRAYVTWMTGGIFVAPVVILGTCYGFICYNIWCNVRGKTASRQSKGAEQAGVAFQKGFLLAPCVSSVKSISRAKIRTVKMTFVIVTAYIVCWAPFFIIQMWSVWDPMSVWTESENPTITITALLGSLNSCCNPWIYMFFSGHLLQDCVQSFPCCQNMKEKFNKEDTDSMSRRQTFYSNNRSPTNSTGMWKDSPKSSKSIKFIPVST
5-hydroxytryptamine receptor 1A (Homo sapiens), sequence (P08908 whole entry): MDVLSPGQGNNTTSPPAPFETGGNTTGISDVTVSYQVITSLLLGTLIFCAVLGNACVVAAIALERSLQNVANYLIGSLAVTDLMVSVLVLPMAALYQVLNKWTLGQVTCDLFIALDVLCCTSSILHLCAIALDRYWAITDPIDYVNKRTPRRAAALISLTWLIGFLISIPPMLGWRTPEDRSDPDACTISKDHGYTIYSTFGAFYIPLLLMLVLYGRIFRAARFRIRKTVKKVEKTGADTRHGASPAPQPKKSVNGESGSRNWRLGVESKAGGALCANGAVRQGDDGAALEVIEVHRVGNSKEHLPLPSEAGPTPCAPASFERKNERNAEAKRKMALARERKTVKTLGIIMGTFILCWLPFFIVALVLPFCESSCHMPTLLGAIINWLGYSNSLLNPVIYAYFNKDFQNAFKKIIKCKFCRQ
Kappa-type opioid receptor (Homo sapiens), sequence (P41145 whole entry): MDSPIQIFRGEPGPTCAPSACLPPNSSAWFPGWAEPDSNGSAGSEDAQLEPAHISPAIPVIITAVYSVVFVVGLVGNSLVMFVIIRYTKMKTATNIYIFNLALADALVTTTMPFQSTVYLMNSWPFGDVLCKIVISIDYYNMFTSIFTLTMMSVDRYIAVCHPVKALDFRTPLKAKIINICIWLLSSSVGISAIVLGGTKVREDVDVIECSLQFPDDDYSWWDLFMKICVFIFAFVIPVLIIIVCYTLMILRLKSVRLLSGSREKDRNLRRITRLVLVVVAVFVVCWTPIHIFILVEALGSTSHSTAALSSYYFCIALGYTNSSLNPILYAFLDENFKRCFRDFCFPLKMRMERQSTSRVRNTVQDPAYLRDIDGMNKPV
Histamine H2 receptor (Homo sapiens), sequence (P25021 whole entry): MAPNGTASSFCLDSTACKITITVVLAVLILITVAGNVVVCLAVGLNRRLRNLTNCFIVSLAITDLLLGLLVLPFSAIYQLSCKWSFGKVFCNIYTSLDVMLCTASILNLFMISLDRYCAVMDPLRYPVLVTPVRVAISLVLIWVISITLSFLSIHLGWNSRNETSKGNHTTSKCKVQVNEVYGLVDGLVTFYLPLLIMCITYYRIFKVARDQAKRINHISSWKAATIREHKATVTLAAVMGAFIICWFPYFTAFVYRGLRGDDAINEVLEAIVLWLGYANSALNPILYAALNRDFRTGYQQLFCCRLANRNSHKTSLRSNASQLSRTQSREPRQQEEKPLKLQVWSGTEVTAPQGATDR
Beta-1 adrenergic receptor (Homo sapiens), sequence (P08588 whole entry, looked up): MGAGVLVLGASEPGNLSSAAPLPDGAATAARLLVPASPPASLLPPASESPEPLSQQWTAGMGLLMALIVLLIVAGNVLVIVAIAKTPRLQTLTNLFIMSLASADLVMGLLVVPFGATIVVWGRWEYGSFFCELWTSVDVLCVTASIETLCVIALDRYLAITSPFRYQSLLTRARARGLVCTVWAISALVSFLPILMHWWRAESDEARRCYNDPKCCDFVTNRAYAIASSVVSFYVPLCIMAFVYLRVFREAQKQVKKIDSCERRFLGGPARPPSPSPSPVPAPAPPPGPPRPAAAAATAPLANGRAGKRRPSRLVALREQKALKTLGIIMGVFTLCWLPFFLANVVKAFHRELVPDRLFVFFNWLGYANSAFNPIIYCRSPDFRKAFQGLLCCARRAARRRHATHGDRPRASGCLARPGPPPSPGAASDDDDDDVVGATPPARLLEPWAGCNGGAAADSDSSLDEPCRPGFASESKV
D(3) dopamine receptor (Homo sapiens), sequence (P35462 whole entry): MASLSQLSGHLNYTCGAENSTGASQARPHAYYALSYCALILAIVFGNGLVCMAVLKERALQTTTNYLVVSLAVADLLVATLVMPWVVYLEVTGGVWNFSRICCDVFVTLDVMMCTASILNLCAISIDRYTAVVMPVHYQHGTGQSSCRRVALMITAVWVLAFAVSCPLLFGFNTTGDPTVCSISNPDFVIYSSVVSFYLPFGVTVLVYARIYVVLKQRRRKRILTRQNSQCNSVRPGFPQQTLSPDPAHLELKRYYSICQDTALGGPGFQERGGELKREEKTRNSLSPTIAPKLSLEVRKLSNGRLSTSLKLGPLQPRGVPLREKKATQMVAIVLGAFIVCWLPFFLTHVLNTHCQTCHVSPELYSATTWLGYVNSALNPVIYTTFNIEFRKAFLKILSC

O=C(Nc1cccnn1)N1CCC(=Cc2cccc(Oc3ccc(C(F)(F)F)cn3)c2)CC1
249 nM: Ki [1]
13% (not active): inhibition at 10 µM [19]
active: IC50 [4] 7.4 nM
-5% (not active): inhibition at 10 µM [26]
inactive: inhibition [5] 3% | inhibition [6] -2% | inhibition [7] 4% | inhibition [8] 1% | inhibition [9] -10% | inhibition [10] -6% | inhibition [11] 3% | inhibition [12] -9% | inhibition [13] 3% | inhibition [14] -4% | inhibition [15] 2% | inhibition [16] -3% | inhibition [17] -6% | inhibition [18] 10% | inhibition [20] 11% | inhibition [21] 35% | inhibition [22] -3% | inhibition [23] -8% | inhibition [24] 7% | inhibition [25] 8% | inhibition [27] -5% | inhibition [28] 11% | inhibition [29] 18% | inhibition [30] 18% | inhibition [31] -2% | inhibition [32] 20.2% | inhibition [33] 30.5%
472 nM: Ki [3]
1340 nM: Ki [2]

O=C(Nc1cccnn1)N1CC(C/C=C/c2cncc(Oc3ccc(C(F)(F)F)cn3)n2)C1
> 100000 nM (not active): IC50 [34]
